The results in this text go back to article doi:10.1101/2023.11.24.568596v1 (biorxiv, 2023).

Holding throughout (details): binder
The target of experiment [1] is EphA2 (Homo sapiens, UniProt P29317).
The target of experiment [2] is Erk3 (Homo sapiens, UniProt Q16659).
In experiment [3] the target is T1, Erk7 (Homo sapiens, UniProt Q8TD08).
T1 sequence (Q8TD08 1-544): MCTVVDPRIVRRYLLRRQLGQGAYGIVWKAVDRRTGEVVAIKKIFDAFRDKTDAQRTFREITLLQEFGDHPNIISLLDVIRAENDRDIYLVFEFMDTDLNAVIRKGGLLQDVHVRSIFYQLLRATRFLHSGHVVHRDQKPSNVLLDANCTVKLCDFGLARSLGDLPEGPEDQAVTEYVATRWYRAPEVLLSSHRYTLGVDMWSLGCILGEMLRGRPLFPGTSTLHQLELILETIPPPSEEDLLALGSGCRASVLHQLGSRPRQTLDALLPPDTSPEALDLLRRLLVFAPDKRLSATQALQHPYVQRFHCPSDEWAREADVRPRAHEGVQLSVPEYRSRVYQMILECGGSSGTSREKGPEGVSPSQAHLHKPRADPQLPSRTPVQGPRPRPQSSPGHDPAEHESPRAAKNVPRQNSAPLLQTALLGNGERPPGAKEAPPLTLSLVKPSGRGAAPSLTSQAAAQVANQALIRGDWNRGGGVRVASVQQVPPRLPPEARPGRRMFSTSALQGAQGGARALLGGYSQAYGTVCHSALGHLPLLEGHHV

Experiment [4] concerns the target FGFR2 (Homo sapiens, UniProt P21802).
Experiment [5] has as its target GSK3B (Homo sapiens, UniProt P49841).
Experiment [6] addresses T2, MARK4 (Homo sapiens, UniProt Q96L34).
T2 sequence (Q96L34 1-752): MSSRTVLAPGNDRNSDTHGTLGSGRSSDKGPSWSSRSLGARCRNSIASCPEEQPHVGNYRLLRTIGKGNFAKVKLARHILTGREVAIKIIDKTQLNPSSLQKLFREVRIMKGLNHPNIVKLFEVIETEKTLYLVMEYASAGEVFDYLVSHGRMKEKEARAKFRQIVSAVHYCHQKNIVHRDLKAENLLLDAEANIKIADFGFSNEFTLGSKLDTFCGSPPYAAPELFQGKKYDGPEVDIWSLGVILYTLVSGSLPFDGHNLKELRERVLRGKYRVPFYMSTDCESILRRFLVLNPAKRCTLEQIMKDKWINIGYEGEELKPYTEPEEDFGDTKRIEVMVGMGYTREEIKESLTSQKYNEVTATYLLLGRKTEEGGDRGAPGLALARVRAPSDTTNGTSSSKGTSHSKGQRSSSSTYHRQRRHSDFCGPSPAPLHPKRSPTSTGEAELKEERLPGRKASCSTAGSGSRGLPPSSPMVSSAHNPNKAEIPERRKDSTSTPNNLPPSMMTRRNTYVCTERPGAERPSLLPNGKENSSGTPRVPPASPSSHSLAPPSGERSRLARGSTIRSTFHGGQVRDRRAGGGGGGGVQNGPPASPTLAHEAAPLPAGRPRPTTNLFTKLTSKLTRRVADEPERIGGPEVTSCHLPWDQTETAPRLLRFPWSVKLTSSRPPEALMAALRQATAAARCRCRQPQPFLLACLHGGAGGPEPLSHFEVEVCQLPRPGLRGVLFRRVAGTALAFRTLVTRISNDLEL

For experiment [7], the target named is T3, MST2 (Homo sapiens, UniProt Q13188).
T3 sequence (Q13188 1-491): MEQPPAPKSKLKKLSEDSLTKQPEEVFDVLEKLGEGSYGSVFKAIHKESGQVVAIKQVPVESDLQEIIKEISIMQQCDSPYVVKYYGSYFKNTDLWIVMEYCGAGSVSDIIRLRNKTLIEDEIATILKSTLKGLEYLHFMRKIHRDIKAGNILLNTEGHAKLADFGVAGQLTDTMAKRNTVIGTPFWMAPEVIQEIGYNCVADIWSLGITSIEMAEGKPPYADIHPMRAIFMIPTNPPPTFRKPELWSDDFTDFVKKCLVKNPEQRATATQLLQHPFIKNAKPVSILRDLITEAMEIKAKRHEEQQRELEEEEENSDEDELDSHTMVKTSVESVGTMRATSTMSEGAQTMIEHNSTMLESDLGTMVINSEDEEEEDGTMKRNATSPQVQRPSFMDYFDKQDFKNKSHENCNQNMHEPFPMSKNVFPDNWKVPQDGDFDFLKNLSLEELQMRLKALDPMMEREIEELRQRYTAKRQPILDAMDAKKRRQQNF

Experiment [8] has as its target MST3 (Homo sapiens, UniProt Q9Y6E0).
Experiment [9] addresses T4, NEK2 (Homo sapiens, UniProt P51955).
T4 sequence (P51955 1-445): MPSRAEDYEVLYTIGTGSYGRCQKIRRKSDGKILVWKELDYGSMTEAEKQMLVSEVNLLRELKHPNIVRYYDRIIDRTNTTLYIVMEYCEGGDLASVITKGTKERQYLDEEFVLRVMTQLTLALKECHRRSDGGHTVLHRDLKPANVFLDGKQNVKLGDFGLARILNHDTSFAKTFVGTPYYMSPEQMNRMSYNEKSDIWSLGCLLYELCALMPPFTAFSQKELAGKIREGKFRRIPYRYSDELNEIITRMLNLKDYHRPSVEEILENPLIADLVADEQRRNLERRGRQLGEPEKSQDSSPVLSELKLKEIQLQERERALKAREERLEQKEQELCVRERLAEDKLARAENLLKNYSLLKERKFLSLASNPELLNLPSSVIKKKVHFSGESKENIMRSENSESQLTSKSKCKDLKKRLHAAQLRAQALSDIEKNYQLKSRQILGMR

EphA2, sequence (P29317 whole entry): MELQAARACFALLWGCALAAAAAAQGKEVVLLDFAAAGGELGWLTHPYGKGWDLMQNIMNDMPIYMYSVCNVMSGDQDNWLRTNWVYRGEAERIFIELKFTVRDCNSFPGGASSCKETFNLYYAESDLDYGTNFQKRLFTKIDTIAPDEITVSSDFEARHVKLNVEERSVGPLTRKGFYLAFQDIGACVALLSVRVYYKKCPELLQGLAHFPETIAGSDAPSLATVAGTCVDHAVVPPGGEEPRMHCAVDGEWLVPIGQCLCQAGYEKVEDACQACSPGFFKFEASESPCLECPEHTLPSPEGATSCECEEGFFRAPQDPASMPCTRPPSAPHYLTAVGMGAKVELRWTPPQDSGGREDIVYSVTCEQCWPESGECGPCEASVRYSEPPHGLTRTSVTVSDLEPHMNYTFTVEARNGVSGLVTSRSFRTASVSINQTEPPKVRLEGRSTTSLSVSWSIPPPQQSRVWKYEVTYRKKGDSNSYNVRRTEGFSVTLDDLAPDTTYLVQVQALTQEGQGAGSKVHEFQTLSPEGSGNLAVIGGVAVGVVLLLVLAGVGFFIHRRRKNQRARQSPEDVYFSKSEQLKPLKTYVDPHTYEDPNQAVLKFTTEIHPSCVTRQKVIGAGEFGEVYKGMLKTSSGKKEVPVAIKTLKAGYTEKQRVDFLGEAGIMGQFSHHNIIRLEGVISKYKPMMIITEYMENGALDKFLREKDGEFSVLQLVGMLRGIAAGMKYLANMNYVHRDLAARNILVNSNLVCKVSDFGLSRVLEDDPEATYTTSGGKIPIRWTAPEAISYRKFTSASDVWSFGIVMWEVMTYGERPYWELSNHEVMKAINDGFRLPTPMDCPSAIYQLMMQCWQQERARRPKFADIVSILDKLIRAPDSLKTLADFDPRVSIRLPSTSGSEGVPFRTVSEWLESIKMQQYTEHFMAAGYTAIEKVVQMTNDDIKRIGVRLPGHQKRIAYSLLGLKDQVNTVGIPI
Erk3, sequence (Q16659 whole entry): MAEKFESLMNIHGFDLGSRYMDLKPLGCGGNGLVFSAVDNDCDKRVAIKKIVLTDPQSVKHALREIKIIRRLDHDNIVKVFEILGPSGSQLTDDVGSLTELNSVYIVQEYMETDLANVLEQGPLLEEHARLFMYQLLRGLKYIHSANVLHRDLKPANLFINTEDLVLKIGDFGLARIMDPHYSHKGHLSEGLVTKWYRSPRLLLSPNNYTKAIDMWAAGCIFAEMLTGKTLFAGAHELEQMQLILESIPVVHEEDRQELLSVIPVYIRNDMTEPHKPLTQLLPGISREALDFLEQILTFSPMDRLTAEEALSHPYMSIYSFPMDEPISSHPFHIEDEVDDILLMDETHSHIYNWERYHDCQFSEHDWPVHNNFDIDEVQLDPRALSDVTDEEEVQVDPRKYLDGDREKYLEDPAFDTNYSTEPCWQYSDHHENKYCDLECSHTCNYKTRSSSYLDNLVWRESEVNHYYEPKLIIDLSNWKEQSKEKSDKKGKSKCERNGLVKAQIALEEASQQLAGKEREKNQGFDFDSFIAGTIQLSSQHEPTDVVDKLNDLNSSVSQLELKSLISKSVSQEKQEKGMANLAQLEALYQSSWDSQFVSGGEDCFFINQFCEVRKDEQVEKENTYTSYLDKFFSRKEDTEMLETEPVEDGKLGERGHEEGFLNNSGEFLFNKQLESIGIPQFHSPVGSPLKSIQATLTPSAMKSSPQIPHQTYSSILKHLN
GSK3B, sequence (P49841 whole entry): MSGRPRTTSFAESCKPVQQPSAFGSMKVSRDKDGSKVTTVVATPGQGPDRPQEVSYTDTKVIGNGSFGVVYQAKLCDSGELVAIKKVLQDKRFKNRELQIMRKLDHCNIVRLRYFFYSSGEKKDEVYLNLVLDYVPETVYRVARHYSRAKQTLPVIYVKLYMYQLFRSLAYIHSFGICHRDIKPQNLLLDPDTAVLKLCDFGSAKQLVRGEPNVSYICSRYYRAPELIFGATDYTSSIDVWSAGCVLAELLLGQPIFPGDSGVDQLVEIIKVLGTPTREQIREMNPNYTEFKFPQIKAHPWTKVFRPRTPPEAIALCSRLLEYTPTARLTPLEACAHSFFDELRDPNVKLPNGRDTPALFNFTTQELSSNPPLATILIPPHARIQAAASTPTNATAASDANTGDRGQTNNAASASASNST
MST3, sequence (Q9Y6E0 whole entry): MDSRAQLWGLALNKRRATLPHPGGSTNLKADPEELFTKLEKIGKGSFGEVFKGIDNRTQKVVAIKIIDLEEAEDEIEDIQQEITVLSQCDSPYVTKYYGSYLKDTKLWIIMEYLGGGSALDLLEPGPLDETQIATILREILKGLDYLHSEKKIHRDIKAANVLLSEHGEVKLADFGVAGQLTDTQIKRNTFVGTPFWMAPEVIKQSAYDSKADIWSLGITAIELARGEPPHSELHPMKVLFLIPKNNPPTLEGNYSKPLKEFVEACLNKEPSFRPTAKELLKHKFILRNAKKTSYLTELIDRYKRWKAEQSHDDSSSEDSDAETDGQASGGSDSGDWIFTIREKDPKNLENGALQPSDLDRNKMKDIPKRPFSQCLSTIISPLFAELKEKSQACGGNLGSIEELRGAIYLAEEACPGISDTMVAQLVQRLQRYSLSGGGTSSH
FGFR2, sequence (P21802 whole entry): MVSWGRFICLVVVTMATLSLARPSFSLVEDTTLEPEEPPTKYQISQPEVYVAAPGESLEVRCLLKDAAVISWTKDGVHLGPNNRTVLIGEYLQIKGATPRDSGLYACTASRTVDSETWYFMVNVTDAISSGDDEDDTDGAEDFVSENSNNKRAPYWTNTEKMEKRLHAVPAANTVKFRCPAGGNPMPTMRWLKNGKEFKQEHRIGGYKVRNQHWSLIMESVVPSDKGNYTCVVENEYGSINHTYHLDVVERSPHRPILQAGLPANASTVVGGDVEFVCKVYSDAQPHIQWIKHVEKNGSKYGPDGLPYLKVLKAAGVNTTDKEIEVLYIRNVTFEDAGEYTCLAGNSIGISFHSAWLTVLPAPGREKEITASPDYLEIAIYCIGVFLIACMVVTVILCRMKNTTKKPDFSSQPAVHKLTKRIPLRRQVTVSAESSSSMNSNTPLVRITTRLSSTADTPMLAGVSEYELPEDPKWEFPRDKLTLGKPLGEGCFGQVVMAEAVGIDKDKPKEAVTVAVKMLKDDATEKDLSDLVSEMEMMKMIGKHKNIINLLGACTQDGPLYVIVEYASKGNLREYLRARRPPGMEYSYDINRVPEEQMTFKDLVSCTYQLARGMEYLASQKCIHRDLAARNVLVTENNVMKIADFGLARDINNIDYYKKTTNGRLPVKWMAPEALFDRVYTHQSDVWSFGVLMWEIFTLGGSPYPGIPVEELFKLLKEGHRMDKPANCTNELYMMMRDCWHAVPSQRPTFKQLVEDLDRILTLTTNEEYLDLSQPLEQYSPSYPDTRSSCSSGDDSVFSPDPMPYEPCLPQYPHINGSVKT

For `Cc1cccc(-c2ccc(-c3cc4cnc(NCCCN5CCCC5=O)nc4n(CCCCN)c3=O)c(Cl)c2)n1` [compound 27, MR30], the “ΔTm MR30 (27)” value was 3.6 °C in experiment [1]; 0.5 °C in experiment [2]; -0.4 °C in experiment [3]; 1.0 °C in [4]; 1.9 °C in experiment [5]; 3.8 °C in experiment [6]. For the same molecule, the “ΔTm MR30 (27)” value in experiment [7] came out at 5.9 °C; in experiment [8] it was 9.8 °C; in [9], 6.2 °C.

Consider `Cc1cccc(-c2ccc(-c3cc4cnc(Nc5cc(C(F)(F)F)ccc5C)nc4n(CCCCN)c3=O)c(Cl)c2)n1` [compound 28, 8-(4-Aminobutyl)-6-(2-chloro-4-(6-methylpyridin-2-yl)phenyl)-2-((2-methyl-5-(trifluoromethyl)phenyl)amino)pyrido[2,3-d]pyrimidin-7(8H)-one], for which the “ΔTm 28” value stood at 4.5 °C in experiment [1]; 0.7 °C in [2]; 0.5 °C in experiment [3]; 3.8 °C in experiment [4]; 0.3 °C in experiment [5]; 2.2 °C in experiment [6]. The entries for the “ΔTm 28” value in experiment [7], in experiment [8] and in [9] were 10.1 °C, 12.1 °C and 7.8 °C, respectively.

For `Cc1cccc(-c2ccc(-c3cc4cnc(NCCCN5CCNCC5)nc4n(CCCCN)c3=O)c(Cl)c2)n1` [compound 29, 8-(4-Aminobutyl)-6-(2-chloro-4-(6-methylpyridin-2-yl)phenyl)-2-((3-(piperazin-1-yl)propyl)amino)pyrido[2,3-d]pyrimidin-7(8H)-one], the “ΔTm 29” value in experiment [1] was 5.1 °C; in experiment [2] it was 0.3 °C; in [3] it was 0.1 °C; in experiment [4], 1.7 °C; in [5] it was 0.3 °C; in [6], 4.8 °C. The “ΔTm 29” value was found to be 9.1 °C in [7], 14.3 °C in experiment [8] and 5.1 °C in experiment [9].

Regarding `Cc1cccc(-c2ccc(-c3cc4cnc(Nc5ccc(CCCO)cc5)nc4n(CCCCN)c3=O)c(Cl)c2)n1` [compound 30, 8-(4-Aminobutyl)-6-(2-chloro-4-(6-methylpyridin-2-yl)phenyl)-2-((4-(3-hydroxypropyl)phenyl)amino)pyrido[2,3-d]pyrimidin-7(8H)-one], the “ΔTm 30” value was determined as 7.7 °C in experiment [1]; 1.1 °C in experiment [2]; 1.2 °C in [3]; 3.9 °C in experiment [4]; 1.9 °C in experiment [5]; 9.5 °C in [6]. In addition, the “ΔTm 30” value in [7] was found to be 15.0 °C; in experiment [8], 15.5 °C; in [9] it was 11.6 °C.

As to `Cc1cccc(-c2ccc(-c3cc4cnc(Nc5ccc(O)cc5)nc4n(CCCCN)c3=O)c(Cl)c2)n1` [compound 31, 8-(4-Aminobutyl)-6-(2-chloro-4-(6-methylpyridin-2-yl)phenyl)-2-((4-hydroxyphenyl)amino) pyrido[2,3-d]pyrimidin-7(8H)-one], the “ΔTm 31” value in [1] is 8.1 °C; in experiment [2] it was 1.2 °C; in [3], 1.4 °C; in experiment [4], 3.9 °C; in experiment [5], 3.2 °C; in experiment [6] it was 10.4 °C. In addition, the entries for the “ΔTm 31” value in [7], in [8] and in experiment [9] were 14.3 °C, 16.1 °C and 10.8 °C, respectively.

As to `Cc1cccc(-c2ccc(-c3cc4cnc(Nc5ccc(C)c(O)c5)nc4n(CCCCN)c3=O)c(Cl)c2)n1` [compound 32, 8-(4-Aminobutyl)-6-(2-chloro-4-(6-methylpyridin-2-yl)phenyl)-2-((3-hydroxy-4-methylphenyl)amino)pyrido[2,3-d]pyrimidin-7(8H)-one], the “ΔTm 32” value was 7.9 °C in experiment [1]; 1.0 °C in experiment [2]; 1.0 °C in [3]; 4.2 °C in [4]; 2.2 °C in [5]; 9.9 °C in experiment [6]. Besides, the “ΔTm 32” value is 14.7 °C in experiment [7], 15.4 °C in experiment [8] and 10.1 °C in experiment [9].
